# From US4085224A, “Method of increasing feed utilization” (Eli Lilly and Company, priority 1976, dated 1978)
# Assays:
# Emeria brunetti = test: anticoccidial activity in chicks (Table IX); assay type: in vivo; details: E. brunetti, 0.005 percent in feed
# Excerpt: (§1) ^1 Four replicates, 5 broiler cockerels each
# Eimeria maxima = test: anticoccidial activity in chicks (Table IX); assay type: in vivo; details: E. maxima, 0.005 percent in feed
# Excerpt: as §1
# Eimeria acervulina = test: anticoccidial activity in chicks (Table IX); assay type: in vivo; details: E. acervulina; for Average Lesion Score: infected controls 1.60; for Oocysts Passed, Total/Bird: infected controls 36.32; for Percent Weight Gain: infected controls 63
# Excerpt: as §1
# [1] = tested on: E. necatrix and E. tenella; test: anticoccidial activity in chicks, mixed infection (Table X); assay type: in vivo; details: 0.005 percent in feed
# Excerpt: (§2) ^1 Four replicates, 5 broiler cockerels each.
# [2] = tested on: E. tenella, E. necatrix, E. maxima, E. brunetti, E. acervulina, and E. mivati; test: as above; assay type: in vivo; details: 0.01 percent in feed
# Excerpt: as §2
# herpes virus = test: in vitro plaque suppression test; assay type: cell-based
# Eimeria tenella = test: anticoccidial activity in chicks (Table VIII); assay type: in vivo; details: for Percent Weight Gain: normal controls 100
# Newcastle Disease virus = assay type: cell-based; details: tissue-culture
# type III poliovirus = assay type: cell-based; details: in vitro plaque suppression
# [3] = tested on: Transmissible Gastro-enteritis virus; assay type: cell-based
# [4] = feed-utilization efficiency in sheep; assay type: in vivo; details: 56 days; for Feed Intake: control 3.56; for Feed/Gain: control 8.38; for Average Daily Gain: control .42
# [5] = tested on: Infectious Bovine Rhinotracheitis virus; assay type: cell-based
# vaccinia virus = assay type: cell-based; details: in vitro plaque suppression
# solubility = assay type: physicochemical
# rumen fluid = test: in vitro rumen fluid volatile fatty acid production; parameters: species or system steer; details: 1 ppm in rumen fluid, 16 hours at 38° C.
# Excerpt: As discussed hereinabove, efficiency of carbohydrate utilization in ruminants is increased by treatments which stimulate the amimal's rumen flora to produce propionate compounds rather than acetate or butyrate compounds. The efficiency of feed use can be monitored by observing the production and concentration of propionate compounds in the rumen, using the following methods:
# Remen fluid is obtained from a steer with a surgically-installed fistula opening into the rumen. The steer is maintained on a high-grain ration. A sample of rumen fluid is strained through four layers of cheesecloth, and the filtrate is collected. The particulate matter retained by the cheesecloth is resuspended in enough physiological buffer to return it to the original volume of the rumen fluid, and this suspension is strained again. The buffer used has the following composition:
# The two filtrates are combined and allowed to stand until particulate matter separates to the top. The clear layer is separated, diluted with the same buffer (1:1) and then adjusted to between pH 6.8 to 7.0.
# The diluted rumen fluid (10 ml) is placed in a 25-ml flask with 40 mg of the above-described feed, an additional 1 mg of soybean protein, and the compound to be tested. Four replicate flasks are used per treatment. Two sets of four control flasks each are also employed. A zero-time control and an incubated 16-hour control are used. All test flasks are incubated for 16 hours at 38° C. […] The samples are allowed to settle, and the supernatants are analyzed by gas chromatography for propionate, acetate, and butyrate compounds.
# Semliki Forest virus = test: in vitro plaque suppression test; assay type: cell-based
# [6] = first group, 0.01 percent in feed
# [7] = first group, 0.02 percent in feed
# [8] = first group, 0.04 percent in feed
# [9] = second group, 0.0025 percent in feed
# [10] = second group, 0.005 percent in feed
# [11] = second group, 0.01 percent in feed
# [12] = second group, 0.02 percent in feed
smiles,measurement,setting,value
CCC(C(=O)O)C1OC(C(C)C(O)C(C)C(=O)C(CC)C2OC3(C=CC(O)C4(CCC(C)(C5CCC(O)(CC)C(C)O5)O4)O3)C(C)CC2C)C(C)CC1C (stereo not shown) [A-28086 factor A],"Oocysts Passed, Percent Reduction",Emeria brunetti,58%
same,Percent Mortality,Emeria brunetti,0%
same,Average Lesion Score,Emeria brunetti; infected controls 1.7,1.2
same,"Oocysts Passed, Total/Bird",Emeria brunetti; infected controls 5.55,2.31 1 × 10^6
same,Percent Weight Gain,Emeria brunetti; infected controls 62,88%
same,"Oocysts Passed, Percent Reduction",Eimeria maxima,40%
same,Percent Mortality,Eimeria maxima,0%
same,Percent Reduction in Lesion Score,Eimeria maxima,85%
same,Average Lesion Score,Eimeria maxima; infected controls 1.3,0.2
same,"Oocysts Passed, Total/Bird",Eimeria maxima; infected controls 3.24,1.95 1 × 10^6
same,Percent Weight Gain,Eimeria maxima; infected controls 65,85%
same,"Oocysts Passed, Percent Reduction",Eimeria acervulina; 0.0025 percent in feed,86%
same,Percent Mortality,Eimeria acervulina; 0.0025 percent in feed,0%
same,Average Lesion Score,Eimeria acervulina; 0.0025 percent in feed,1.25
same,"Oocysts Passed, Total/Bird",Eimeria acervulina; 0.0025 percent in feed,4.91 1 × 10^6
same,Percent Weight Gain,Eimeria acervulina; 0.0025 percent in feed,82%
same,"Oocysts Passed, Percent Reduction",Eimeria acervulina; 0.005 percent in feed,83%
same,Percent Mortality,Eimeria acervulina; 0.005 percent in feed,0%
same,Percent Reduction in Lesion Score,Eimeria acervulina; 0.005 percent in feed,53%
same,Average Lesion Score,Eimeria acervulina; 0.005 percent in feed,0.75
same,"Oocysts Passed, Total/Bird",Eimeria acervulina; 0.005 percent in feed,6.15 1 × 10^6
same,Percent Weight Gain,Eimeria acervulina; 0.005 percent in feed,87%
same,"Cecal Lesions, Percent Reduction",[1],50%
same,"Intestinal Lesions, Percent Reduction",[1],59%
same,"Intestinal Lesions, Average",[1]; infected controls 1.7,0.7
same,"Cecal Lesions, Average",[1]; infected controls 3.5,1.75
same,Percent Mortality,[1]; infected controls 20,0%
same,Percent Weight Gain,[1]; infected controls 52,94%
same,"Cecal Lesions, Percent Reduction",[2],73%
same,"Intestinal Lesions, Percent Reduction",[2],79%
same,"Intestinal Lesions, Average",[2]; infected controls 1.9,0.4
same,"Cecal Lesions, Average",[2]; infected controls 3.3,0.9
same,Percent Weight Gain,[2]; infected controls 12,91%
same,Percent Mortality,[2]; infected controls 50,0%
same,antiviral activity,herpes virus,active
same,Percent Reduction in Lesion Score,Eimeria tenella; [6],95%
same,Percent Mortality,"Eimeria tenella; first group, 0.01 percent in feed, 10 chickens",0%
same,Average Lesion Score,"Eimeria tenella; first group, 0.01 percent in feed, infected controls 3.65",0.2
same,Percent Weight Gain,Eimeria tenella; [6],94%
same,Percent Reduction in Lesion Score,Eimeria tenella; [7],95%
same,Percent Mortality,"Eimeria tenella; first group, 0.02 percent in feed, 10 chickens",0%
same,Average Lesion Score,"Eimeria tenella; first group, 0.02 percent in feed, infected controls 3.65",0.2
same,Percent Weight Gain,Eimeria tenella; [7],82%
same,Percent Reduction in Lesion Score,Eimeria tenella; [8],100%
same,Percent Mortality,"Eimeria tenella; first group, 0.04 percent in feed, 10 chickens",0%
same,Average Lesion Score,"Eimeria tenella; first group, 0.04 percent in feed, infected controls 3.65",0
same,Percent Weight Gain,Eimeria tenella; [8],50%
same,Percent Reduction in Lesion Score,Eimeria tenella; [9],0%
same,Percent Mortality,"Eimeria tenella; second group, 0.0025 percent in feed, 20 chickens",10%
same,Average Lesion Score,"Eimeria tenella; second group, 0.0025 percent in feed, infected controls 3.85",3.85
same,Percent Weight Gain,Eimeria tenella; [9],87%
same,Percent Reduction in Lesion Score,Eimeria tenella; [10],27%
same,Percent Mortality,"Eimeria tenella; second group, 0.005 percent in feed, 20 chickens",0%
same,Average Lesion Score,"Eimeria tenella; second group, 0.005 percent in feed, infected controls 3.85",2.8
same,Percent Weight Gain,Eimeria tenella; [10],91%
same,Percent Reduction in Lesion Score,Eimeria tenella; [11],100%
same,Percent Mortality,"Eimeria tenella; second group, 0.01 percent in feed, 20 chickens",0%
same,Average Lesion Score,"Eimeria tenella; second group, 0.01 percent in feed, infected controls 3.85",0
same,Percent Weight Gain,Eimeria tenella; [11],96%
same,Percent Reduction in Lesion Score,Eimeria tenella; [12],100%
same,Percent Mortality,"Eimeria tenella; second group, 0.02 percent in feed, 20 chickens",0%
same,Average Lesion Score,"Eimeria tenella; second group, 0.02 percent in feed, infected controls 3.85",0
same,Percent Weight Gain,Eimeria tenella; [12],84%
same,antiviral activity,Newcastle Disease virus,active
same,antiviral activity,type III poliovirus,active
same,antiviral activity,[3],active
same,Feed Intake,[4]; 9 g per ton of feed,3.29 lbs./day
same,Feed/Gain,[4]; 9 g per ton of feed,7.40
same,Average Daily Gain,[4]; 9 g per ton of feed,.44 lbs./day
same,Feed Intake,[4]; 18 g per ton of feed,3.15 lbs./day
same,Feed/Gain,[4]; 18 g per ton of feed,8.31
same,Average Daily Gain,[4]; 18 g per ton of feed,.38 lbs./day
same,feed-utilization efficiency (in words),[4]; sheep,increases feed-utilization efficiency
same,antiviral activity,[5],active
same,antiviral activity,vaccinia virus,active
same,solubility in organic solvents,"solubility; organic solvents such as methanol, ethanol, DMF, DMSO, ethyl acetate, chloroform, acetone, benzene",soluble
same,solubility in water,solubility; water,insoluble in water
same,"Ratio of Treated to Control, Molar % acetate",rumen fluid,0.94
same,"Ratio of Treated to Control, Molar % butyrate",rumen fluid,0.87
same,"Ratio of Treated to Control, Molar % propionate",rumen fluid,1.34
same,"Ratio of Treated to Control, Total VFA mM/l",rumen fluid,1.26
same,antiviral activity,Semliki Forest virus,active
